Laboratory results taken from patent US9573957B2 (Boehringer Ingelheim International GmbH, priority 2013, dated 2017).

Assays:
human LTA4 hydrolase = human LTA4 hydrolase (Homo sapiens (Human), UniProt P09960); assay: LTA4H Enzyme assay (peptidase, Arg-AMC cleavage); format: biochemical; conditions: LTA4H Enzyme 1 nM, Arg-AMC substrate 50 μM, room temperature 1 h, fluorescence
In short: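 Peptidase activity of human LTA4H (1 nM final) on Arg-AMC (50 μM final), with compound, 1 h at room temperature. Buffer: 50 mM Tris-HCl pH 7.5, 100 mM KCl, 0.5% BSA.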

[1] = test system: synthesis of LTB4 in human whole blood; assay: LTB4 production inhibition assay in human whole blood (HWB); format: cell-based; conditions: heparinized human whole blood, 15 min at 37° C., Calcimycin 20 μM 30 min, plasma LTB4 by HTRF
In short: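 Heparinized human whole blood preincubated with compound 15 min at 37° C, then stimulated with calcimycin (20 μM final) for 30 min at 37° C. Plasma separated by centrifugation; LTB4 measured by antibody-based homogeneous time-resolved fluorescence.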

Sequence of human LTA4 hydrolase (P09960 whole entry): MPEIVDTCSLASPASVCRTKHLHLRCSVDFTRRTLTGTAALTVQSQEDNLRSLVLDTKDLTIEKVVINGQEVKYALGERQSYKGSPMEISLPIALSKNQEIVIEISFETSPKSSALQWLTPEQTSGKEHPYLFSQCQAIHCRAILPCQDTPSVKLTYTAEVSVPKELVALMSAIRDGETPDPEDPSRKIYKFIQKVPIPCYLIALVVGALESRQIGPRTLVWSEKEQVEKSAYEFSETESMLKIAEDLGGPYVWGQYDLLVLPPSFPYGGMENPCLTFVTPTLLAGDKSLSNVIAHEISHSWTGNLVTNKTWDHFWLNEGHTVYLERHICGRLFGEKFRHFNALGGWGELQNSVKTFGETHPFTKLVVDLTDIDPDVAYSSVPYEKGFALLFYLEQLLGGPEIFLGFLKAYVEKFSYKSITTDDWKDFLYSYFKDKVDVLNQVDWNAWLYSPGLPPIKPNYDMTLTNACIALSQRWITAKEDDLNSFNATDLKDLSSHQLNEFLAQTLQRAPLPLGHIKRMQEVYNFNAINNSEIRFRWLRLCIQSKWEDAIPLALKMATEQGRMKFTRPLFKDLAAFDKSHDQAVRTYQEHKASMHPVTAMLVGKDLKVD

SMILES	IC50 (human LTA4 hydrolase) [µM]	IC50 [1] [µM]
CC[C@@H](O)C(=O)N1CCN(Cc2ccc3cc(Oc4ccc(-c5ccn[nH]5)cn4)ccc3n2)CC1 [Example 134, (R)-2-Hydroxy-1-(4-{6-[5-(2H-pyrazol-3-yl)-pyridin-2-yloxy]-quinolin-2-ylmethyl}-piperazin-1-yl)-butan-1-one]	0.0031	0.41
CC(C)(CO)C(=O)N1CCN(Cc2ccc3cc(Oc4ccc(-c5ccn[nH]5)cn4)ccc3n2)CC1 [Example 135, 3-Hydroxy-2,2-dimethyl-1-(4-{6-[5-(2H-pyrazol-3-yl)-pyridin-2-yloxy]-quinolin-2-ylmethyl}-piperazin-1-yl)-propan-1-one]	0.0054	0.61
O=C(C1C2COCC21)N1CCN(Cc2ccc3cc(Oc4ccc(-c5ccn[nH]5)cn4)ccc3n2)CC1 (stereo not shown) [Example 136, (3-Oxa-bicyclo[3.1.0]hex-6-yl)-(4-{6-[5-(2H-pyrazol-3-yl)-pyridin-2-yloxy]-quinolin-2-ylmethyl}-piperazin-1-yl)-methanone]	0.006	0.77
CC(C)[C@H](O)C(=O)N1CCN(Cc2ccc3cc(Oc4ccc(-c5ccn[nH]5)cn4)ccc3n2)CC1 [Example 137, (S)-2-Hydroxy-3-methyl-1-(4-{6-[5-(2H-pyrazol-3-yl)-pyridin-2-yloxy]-quinolin-2-ylmethyl}-piperazin-1-yl)-butan-1-one]	0.0025	0.44
O=C(N1CCN(Cc2ccc3cc(Oc4ccc(-c5ccn[nH]5)cn4)ccc3n2)CC1)C1(CO)CC1 [Example 138, (1-Hydroxymethyl-cyclopropyl)-(4-{6-[5-(2H-pyrazol-3-yl)-pyridin-2-yloxy]-quinolin-2-ylmethyl}-piperazin-1-yl)-methanone]	0.0017	0.34
O=C(C1CC(O)C1)N1CCN(Cc2ccc3cc(Oc4ccc(-c5ccn[nH]5)cn4)ccc3n2)CC1 (stereo not shown) [Example 139, (3-Hydroxy-cyclobutyl)-(4-{6-[5-(2H-pyrazol-3-yl)-pyridin-2-yloxy]-quinolin-2-ylmethyl}-piperazin-1-yl)-methanone]	0.003	0.5
CO[C@H](C)C(=O)N1CCN(Cc2ccc3cc(Oc4ccc(-c5ccn[nH]5)cn4)ccc3n2)CC1 [Example 140, (R)-2-Methoxy-1-(4-{6-[5-(2H-pyrazol-3-yl)-pyridin-2-yloxy]-quinolin-2-ylmethyl}-piperazin-1-yl)-propan-1-one]	0.00057	0.15
O=C([C@@H]1CCOC1)N1CCN(Cc2ccc3cc(Oc4ccc(-c5ccn[nH]5)cn4)ccc3n2)CC1 [Example 141, (4-{6-[5-(2H-Pyrazol-3-yl)-pyridin-2-yloxy]-quinolin-2-ylmethyl}-piperazin-1-yl)-(R)-tetrahydro-furan-3-yl-methanone]	0.0027	0.4
COCCCC(=O)N1CCN(Cc2ccc3cc(Oc4ccc(-c5ccn[nH]5)cn4)ccc3n2)CC1 [Example 142, 4-Methoxy-1-(4-{6-[5-(2H-pyrazol-3-yl)-pyridin-2-yloxy]-quinolin-2-ylmethyl}-piperazin-1-yl)-butan-1-one]	0.0025	0.93
O=C(N1CCN(Cc2ccc3cc(Oc4ccc(-c5ccn[nH]5)cn4)ccc3n2)CC1)C1(O)CCC1 [Example 143, (1-Hydroxy-cyclobutyl)-(4-{6-[5-(2H-pyrazol-3-yl)-pyridin-2-yloxy]-quinolin-2-ylmethyl}-piperazin-1-yl)-methanone]	0.0018	0.58
CCCOCC(=O)N1CCN(Cc2ccc3cc(Oc4ccc(-c5ccn[nH]5)cn4)ccc3n2)CC1 [Example 144, 2-Propoxy-1-(4-{6-[5-(2H-pyrazol-3-yl)-pyridin-2-yloxy]-quinolin-2-ylmethyl}-piperazin-1-yl)-ethanone]	0.0023	0.66
CC(C)(C#N)C(=O)N1CCN(Cc2ccc3cc(Oc4ccc(-c5ccn[nH]5)cn4)ccc3n2)CC1 [Example 145, 2,2-Dimethyl-3-oxo-3-(4-{6-[5-(2H-pyrazol-3-yl)-pyridin-2-yloxy]-quinolin-2-ylmethyl}-piperazin-1-yl)-propionitrile]	0.0013	0.51
N#CC1(C(=O)N2CCN(Cc3ccc4cc(Oc5ccc(-c6ccn[nH]6)cn5)ccc4n3)CC2)CCC1 [Example 146, 1-(4-{6-[5-(2H-Pyrazol-3-yl)-pyridin-2-yloxy]-quinolin-2-ylmethyl}-piperazine-1-carbonyl)-cyclobutanecarbonitrile]	0.0034	0.75
N#CC1(C(=O)N2CCN(Cc3ccc4cc(Oc5ccc(-c6ccn[nH]6)cn5)ccc4n3)CC2)CCOCC1 [Example 148, 4-(4-{6-[5-(2H-Pyrazol-3-yl)-pyridin-2-yloxy]-quinolin-2-ylmethyl}-piperazine-1-carbonyl)-tetrahydro-pyran-4-carbonitrile]	0.0079	1.1
CC(C#N)C(=O)N1CCN(Cc2ccc3cc(Oc4ccc(-c5ccn[nH]5)cn4)ccc3n2)CC1 (stereo not shown) [Example 149, 2-Methyl-3-oxo-3-(4-{6-[5-(2H-pyrazol-3-yl)-pyridin-2-yloxy]-quinolin-2-ylmethyl}-piperazin-1-yl)-propionitrile]	0.00047	0.2
CC1(O)CC(C(=O)N2CCN(Cc3ccc4cc(Oc5ccc(-c6ccn[nH]6)cn5)ccc4n3)CC2)C1 (stereo not shown) [Example 150, (3-Hydroxy-3-methyl-cyclobutyl)-(4-{6-[5-(2H-pyrazol-3-yl)-pyridin-2-yloxy]-quinolin-2-ylmethyl}-piperazin-1-yl)-methanone]	0.0034	0.49
O=C([C@@H]1CCC[C@@H]1O)N1CCN(Cc2ccc3cc(Oc4ccc(-c5ccn[nH]5)cn4)ccc3n2)CC1 [Example 151, ((1R,2S)-2-Hydroxy-cyclopentyl)-(4-{6-[5-(2H-pyrazol-3-yl)-pyridin-2-yloxy]-quinolin-2-ylmethyl}-piperazin-1-yl)-methanone]	0.0061	0.8
